What was measured:
[1] = Solubility of racemic ester in toluene; format: physicochemical; conditions: 4° C.
Description: The amount of toluene required to dissolve the racemic ester at 4° C. was determined by dividing the weight of racemic ester by the solubility of the ester in toluene at this temperature (˜0.13 g of racemic ester/g of toluene). The weight of toluene required was then 19.07/0.13=146.7 g. The two organic fractions were combined and toluene was then evaporated until the total weight of toluene plus ester was equal to 146.7+109.5 or 256.2 g. Afterward, the organic concentrate containing ester and toluene was cooled to 4° C. for 18 hours in order to crystallize the (2R,3S) enantiomer of the ester. The precipitated crystals were then filtered and analyzed, while the mother liquor was saved for recycling. The amount of solids collected was 91.9 g. […] The yield of resolved ester was 38.6%.

[2] = Loss of compound A on extraction with 10% bisulfite solution; format: physicochemical; conditions: diethyl ether solution extracted once with 10% bisulfite solution
Description: 2.0 g of pure, racemic compound A were dissolved in 200 mls of diethyl ether. This organic solution was then extracted once with 250 mls of a 10% bisulfite solution, washed with 250 mls water, dried over magnesium sulphate, and evaporated to leave 1.8 g of racemic compound A, indicating a 10% loss of material. Recovery of material in the absence of the bisulfite wash was nearly quantitative.

[3] = Stability of GLOP / racemic ester in solvents on standing; format: physicochemical
Source text: At six days, only about half of the original amount of ester remained.

[4] = Non-enzymatic degradation of substrate ester in the presence of BSA; format: physicochemical
Source text: Following these experiments, another factor was then considered. As the interfacial activity of any compound will be affected by surfactants, for instance a protein, one could expect the presence of the enzyme to exert effects on the non-enzymatic nonspecific degradation of the substrate compound. To test this proposition, control experiments were run in which bovine serum albumin (BSA) was substituted for the hydrolytic enzyme in the reaction mixture. The chlorinated hydrocarbons and p-xylene were omitted for convenience.
Racemic 3-(4-methoxyphenyl) glycidic acid methyl ester (10.0 mmols, 2.08 g) was dissolved in 50 mL of the chosen organic solvent, and added to 50 mL of 200 mM sodium phosphate buffer at the chosen pH (7.0, 8.0, or 8.5) in a 250 mL shaker flask. Bovine serum albumin (BSA, 100 mg) was then added. The flask was closed, and agitated for 18 hours at ambient temperature (20-25° C.). The reaction mixture was then poured into a separatory funnel, the organic layer removed (except in the case of 1,4-dioxane, which is miscible in water), and the aqueous layer washed with diethyl ether. The organic layers were then combined, backwashed with water, and dried over anhydrous magnesium sulfate. The organic solvent was then removed under reduced pressure, and the recovered ester weighed to determine the extent of non-enzymatic degradation.

[5] = Stability of glycidic ester in aqueous phosphate buffer with and without toluene; format: physicochemical
Source text: In the present invention, enzyme catalysts are present either dissolved or dispersed in an aqueous phase. Although the glycidic esters described herein are generally quite insoluble in water, the epoxide ring is susceptible to opening through nucleophilic attack by species such as hydroxide ions and water molecules, even in the absence of enzymes. […] Therefore, the use of an organic phase as a method for protecting the substrate from undesired transformations by water, hydroxide ions, or water-soluble buffer systems is a significant aspect of this invention. These experimental observations indicate the need for a biphasic system, and preferably a multiphase/extractive membrane reactor as described below, for efficiently conducting the enzyme-mediated resolution process disclosed herein.

[6] = Degradation rate of racemic ester in membrane reactor system, toluene vs MIBK; format: physicochemical; conditions: organic solution in contact with 50 mM phosphate buffer pH 8.0, membrane reactor
Description: In a separate experiment, the degradation rate of racemic ester was measured in a membrane reactor system using two kinds of solvent, toluene and methyl isobutyl ketone (MIBK), at different concentrations of glycidyl ester. These organic solutions were brought into contact separately with a 50 mM phosphate buffer (pH 8.0) to simulate enzymatic resolution conditions. The amount of ester present in the organic solutions was monitored over several hours.

Lipase OF = assay: Degree of inhibition by reaction products: initial rate of hydrolysis of compound A by Lipase OF; format: biochemical, Candida cylindracea; conditions: pH 8.0, 400 mM compound A in toluene, in the presence of 1 mmole (50 mM) of the compound, A alone = 1.0
Description: (§1) A reaction mixture composed of 12 mls of 50 mM sodium phosphate buffer at pH 8.0 and 8 mls of a 400 mM toluene solution of pure, racemic compound A, was rapidly stirred and the reaction rate monitored by a device known as a “pH stat”. A given amount of a given commercial enzyme preparation was then added to the reaction mixture, and the initial rate of hydrolysis calculated. The reaction was repeated in the presence of 1 mmole (50 mM) of compound C, in the presence of 1 mmole (50 mM) of compound D, and in the presence of 1 mmole (50 mM) of compound E. The results are tabulated in Table 11.

Lipase P = target: T1, Lipase P (Burkholderia cepacia, UniProt P22088); assay: Degree of inhibition by reaction products: initial rate of hydrolysis of compound A by Lipase P; format: biochemical; conditions: pH 8.0, 400 mM compound A in toluene, in the presence of 1 mmole (50 mM) of the compound, A alone = 1.0
T1 construct: purchased Amano
T1 sequence (P22088 45-364): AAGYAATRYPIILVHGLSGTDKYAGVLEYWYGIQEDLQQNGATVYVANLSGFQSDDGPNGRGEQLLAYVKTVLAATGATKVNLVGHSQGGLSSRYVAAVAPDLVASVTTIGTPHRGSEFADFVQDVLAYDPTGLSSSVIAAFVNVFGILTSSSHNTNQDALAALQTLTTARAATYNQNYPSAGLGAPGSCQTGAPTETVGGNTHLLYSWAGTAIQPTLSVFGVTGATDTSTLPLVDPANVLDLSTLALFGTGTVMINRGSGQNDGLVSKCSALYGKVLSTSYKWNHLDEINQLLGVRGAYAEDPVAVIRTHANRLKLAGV
Description: as §1

Lipase MAP = assay: Degree of inhibition by reaction products: initial rate of hydrolysis of compound A by Lipase MAP; format: biochemical; conditions: pH 8.0, 400 mM compound A in toluene, in the presence of 1 mmole (50 mM) of the compound, A alone = 1.0
Description: as §1

Palatase M = target: T2, Palatase M (Rhizomucor miehei, UniProt P19515); assay: Degree of inhibition by reaction products: initial rate of hydrolysis of compound A by Palatase M; format: biochemical; conditions: pH 8.0, 400 mM compound A in toluene, in the presence of 1 mmole (50 mM) of the compound, A alone = 1.0
T2 construct: purchased Novo
T2 sequence (P19515 95-363): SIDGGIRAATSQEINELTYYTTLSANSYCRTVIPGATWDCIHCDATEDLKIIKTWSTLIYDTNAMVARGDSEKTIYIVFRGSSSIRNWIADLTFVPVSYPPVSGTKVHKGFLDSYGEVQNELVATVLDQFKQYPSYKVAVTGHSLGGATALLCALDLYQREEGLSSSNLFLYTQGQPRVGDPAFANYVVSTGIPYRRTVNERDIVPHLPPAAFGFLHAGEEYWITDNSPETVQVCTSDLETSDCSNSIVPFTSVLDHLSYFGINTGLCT
Description: as §1

[7] = aqueous solution; cited from earlier work

COC(=O)[C@@H]1O[C@H]1c1ccc(OC)cc1 (relative stereo) [Compound A, trans-3-(4-methoxyphenyl)glycidic acid methyl ester]
Solubility of the ester in toluene [1]: ~0.13 g of racemic ester/g of toluene | Loss of material [2]: 10% | Original amount of ester remaining ([3]; saturated methanol solution, room temperature, six days): about half | Original amount of ester degraded ([3]; saturated methanol solution, room temperature, two days, HPLC): about 9% | Percent degradation ([4]; 1,4-dioxane, pH 7.0, 18 hours ambient): 40.9% | Percent degradation ([4]; 1,4-dioxane, pH 8.0, 18 hours ambient): 21.6% | Percent degradation ([4]; MIBK, pH 8.0, 18 hours ambient): 15.0% | Percent degradation ([4]; MIBK, pH 8.5, 18 hours ambient): 12.0% | Percent degradation ([4]; MetBuO, pH 7.0, 18 hours ambient): 41.8% | Percent degradation ([4]; MetBuO, pH 8.0, 18 hours ambient): 22.1% | Percent degradation ([4]; benzene, pH 7.0, 18 hours ambient): 38.5% | Percent degradation ([4]; benzene, pH 8.0, 18 hours ambient): 14.4% | Percent degradation ([4]; cyclohexane, pH 7.0, 18 hours ambient): 71.6% | Percent degradation ([4]; cyclohexane, pH 8.0, 18 hours ambient): 38.5% | Percent degradation ([4]; toluene, pH 8.0, 18 hours ambient): 14.3% | Percent degradation ([4]; toluene, pH 8.5, 18 hours ambient): 19.1% | Stability in aqueous buffer ([5]; aqueous sodium phosphate buffer pH 7.0, 18 hours, ambient temperature, no organic solvent or enzyme): loss of glycidic ester | Glycidic ester recovered ([5]; toluene in 1-to-1 phase ratio with pH 7.0 buffer, 18 hours): 100% | Degradation rate constant in MIBK relative to toluene [6]: about 3 times

COc1ccc(CC=O)cc1 [C, 4-methoxyphenylacetaldehyde]
Relative Initial Rates (Lipase OF): 0.63 | Relative Initial Rates (Lipase P): 1.00 | Relative Initial Rates (Lipase MAP): 0.73 | Relative Initial Rates (Palatase M): 0.38

COc1ccc(CC(=O)O)cc1 [D, 4-methoxyphenylacetic acid]
Relative Initial Rates (Lipase OF): 1.18 | Relative Initial Rates (Lipase P): 1.07 | Relative Initial Rates (Lipase MAP): 0.99 | Relative Initial Rates (Palatase M): >1.0

O=S(O)O [bisulfite anion]
pKa [7]: approximately 7

COC(=O)[C@@H]1O[C@H]1c1ccc(OC)cc1 [resolved GLOP, (2R,3S)-3-(4-methoxyphenyl)glycidic acid methyl ester]
Stability in solution ([3]; aromatic solvent, ambient temperature, over days): stable against the loss of material or optical activity
